According to patent US5312816A, “Method of combatting osteoporosis in mammalian subjects, utilizing organic boron compounds” (priority 1993, dated 1994):
Where two headings read alike, the source gives them in different places.

How the values were obtained:
[1] = test system: Prostaglandin cyclooxygenase; assay: Human osteoporosis fibroblasts prostaglandin cyclooxygenase activity; format: cell-based; details: read-out: Prostaglandin Cyclooxygense IC50, Table XI, 60 min incubation
[2] = test system: Aryl sulphatase; assay: Human osteoporosis fibroblasts aryl sulphatase activity; format: cell-based; details: read-out: Aryl Sulphatase IC50; Table X; human osteoporosis fibroblasts
From the text: 3. Aryl sulphatase- p-nitrocatechol sulfate, pH
5. 8 p-nitro-catechol product 510 nm.

[3] = test system: Trypsin; assay: Mouse macrophage trypsin (BAEE) activity; format: cell-based
[4] = biological target: T1, 5'-lipoxygenase (Mus musculus, UniProt P48999); assay: Mouse hepatic 5'-lipoxygenase activity; format: biochemical; details: Table VI; mouse hepatic, 60 min incubation; read-out: 5'-lipoxygenase IC50
T1 construct: Cf1 male mouse hepatic 10% homogenates; from tissue; host or cells: CF1 male mouse liver, 10% homogenate
T1 sequence (P48999 1-674): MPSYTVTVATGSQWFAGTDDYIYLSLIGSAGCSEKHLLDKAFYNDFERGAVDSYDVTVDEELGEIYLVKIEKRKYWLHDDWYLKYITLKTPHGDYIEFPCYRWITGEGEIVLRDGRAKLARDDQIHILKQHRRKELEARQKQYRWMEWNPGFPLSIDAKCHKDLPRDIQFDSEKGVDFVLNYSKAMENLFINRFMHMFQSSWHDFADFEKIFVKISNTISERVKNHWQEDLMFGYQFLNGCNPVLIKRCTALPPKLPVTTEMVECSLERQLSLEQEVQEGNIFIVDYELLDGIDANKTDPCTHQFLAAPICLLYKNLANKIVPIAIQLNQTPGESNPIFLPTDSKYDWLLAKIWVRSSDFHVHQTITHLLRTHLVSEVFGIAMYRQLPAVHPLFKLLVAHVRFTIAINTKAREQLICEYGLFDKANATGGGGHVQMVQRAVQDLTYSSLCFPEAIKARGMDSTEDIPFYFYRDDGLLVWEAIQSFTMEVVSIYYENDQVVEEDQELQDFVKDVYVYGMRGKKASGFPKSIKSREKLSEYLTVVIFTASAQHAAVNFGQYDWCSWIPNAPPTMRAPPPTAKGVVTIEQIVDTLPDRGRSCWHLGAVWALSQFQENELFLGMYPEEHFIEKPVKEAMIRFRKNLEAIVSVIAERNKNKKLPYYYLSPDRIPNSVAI
From the text: (§1) 1. Cf1 male mouse hepatic 10% homogenates in 0.25M sucrose+0.001MEDTA,pH 7.2.
5'-lipoxygenase Mylari, B.L., et al, J. Med.

[5] = test system: Elastase; assay: Human osteoporosis fibroblasts elastase activity; format: cell-based; details: read-out: Elastase IC50; Table XI; human osteoporosis fibroblasts, 60 min incubation
From the text: (§2) 2. Elastase- N-succinyl-L-alanyl-L-alanine-p-nitroanilide, pH 8.0, p-nitro anilide 410 nm.

[6] = test system: Cf1 male mice; assay: Writhing reflex, 0.6% acetic acid; format: in vivo; parameters: response vs control in vivo: dose or concentration left out as unconfirmed
[7] = biological target: T2, Cathepsin D (Homo sapiens, UniProt P07339); assay: Human osteoporosis fibroblasts cathepsin D (azo-casein) activity; format: cell-based; details: Table X; human osteoporosis fibroblasts, DMEM +10% FCS + P/S; read-out: Cathepsin D IC50
T2 construct: azocasein assay pH 5.0
From the text: Osteoporosis Human Fibroblast-CRL-1140, Be SA1

[8] = test system: Cathepsin; assay: Human leukocyte cathepsin; format: cell-based; details: read-out: Cathepsin IC50; Table XII; human leukocytes, 60 min incubation
From the text: 5. Human peripheral leukocytes, RPMI-1788
(§3) 2. Acid Cathepsin D -azocasein-pH 5.0, hydrolytic azo-peptide produce 366 nm.

[9] = test system: Acid phosphatase; assay: Mouse macrophage acid phosphatase activity; format: cell-based
[10] = test system: Acid phosphatase; assay: Human osteoporosis fibroblasts acid phosphatase activity; format: cell-based; details: read-out: Acid Phosphatase IC50; Table X; human osteoporosis fibroblasts
From the text: (§4) 1. Acid phosphatase -beta glycerol-3-phosphate, pH 5.0, released IP 720 nm.

[11] = test system: Elastase; assay: Mouse macrophage elastase activity; format: cell-based
[12] = biological target: T3, Prostaglandin synthetase (Bos taurus, UniProt O62664); assay: Prostaglandin synthetase (cyclooxygenase), purified beef seminal vesicle; format: biochemical; details: Table IX; commercial enzyme preparation; read-out: Beef Prostaglandin Cyclooxygenase IC50
T3 construct: Prostaglandin synthetase purified beef seminal vesicle; from tissue
T3 sequence (O62664 25-600): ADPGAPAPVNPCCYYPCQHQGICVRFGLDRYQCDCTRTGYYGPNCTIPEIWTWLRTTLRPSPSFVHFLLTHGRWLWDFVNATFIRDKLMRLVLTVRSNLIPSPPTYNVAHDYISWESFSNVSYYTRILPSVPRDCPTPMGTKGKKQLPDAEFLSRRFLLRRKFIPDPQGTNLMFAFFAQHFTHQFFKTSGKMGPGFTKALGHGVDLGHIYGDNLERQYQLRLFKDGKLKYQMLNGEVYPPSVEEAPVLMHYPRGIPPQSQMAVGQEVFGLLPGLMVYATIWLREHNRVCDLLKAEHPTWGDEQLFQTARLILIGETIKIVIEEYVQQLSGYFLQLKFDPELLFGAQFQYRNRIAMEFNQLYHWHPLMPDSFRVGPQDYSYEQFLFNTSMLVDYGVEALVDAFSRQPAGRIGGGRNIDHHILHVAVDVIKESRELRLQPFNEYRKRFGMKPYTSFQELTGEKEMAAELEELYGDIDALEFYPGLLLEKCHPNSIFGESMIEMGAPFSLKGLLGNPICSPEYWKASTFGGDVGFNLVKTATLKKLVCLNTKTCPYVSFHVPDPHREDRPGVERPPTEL
From the text: (§5) Prostaglandin synthetase purified beef seminal vesicle ^3 H arachidonic acid (86.2 Ci/mmol), tlc separation.

[13] = biological target: T4, Porcine Pancreatic Elastase (Sus scrofa, UniProt P00772); assay: Porcine pancreatic elastase activity in vitro; format: biochemical; details: Table IX; commercial enzyme preparation
T4 construct: purchased; host or cells: porcine pancreas
From the text: as §2

[14] = test system: Trypsin; assay: Human osteoporosis fibroblasts trypsin (BAEE) activity; format: cell-based; details: read-out: Trypsin BAEE IC50; Table XI; human osteoporosis fibroblasts, 60 min incubation
From the text: 1. Trypsin- N-benzoyl-L-arginine ethyl ester pH 8.0, hydrolytic product 253 nm.

[15] = test system: Prostaglandin cyclooxygenase; assay: Mouse macrophage prostaglandin cyclooxygenase activity; format: cell-based
From the text: (§6) 3. Mouse macrophages J774A.1 BALB/c
as §5

[16] = biological target: T5, Cathepsin D (Mus musculus, UniProt P18242); assay: Mouse hepatic lysosomal cathepsin D activity; format: biochemical
T5 construct: azocasein assay pH 5.0
From the text: as §1
(§7) Lysosomal Enzymes - free and total [triton X-100].
as §3
Cathepsin azo casein activity -

[17] = test system: Sprague Dawley male rats; assay: Chronic adjuvant arthritis screen, Mycobacterium butyricum; format: in vivo; details: Table 1; Indomethacin 10 mg/kg
[18] = biological target: T5, Cathepsin D; assay: Mouse macrophage cathepsin D activity; format: cell-based; details: Table VII; mouse macrophage cultured cells, DMEM +10% FCS +P/S, 60 min incubation; read-out: Cathepsin D IC50
From the text: as §6, §3

[19] = test system: cAMP; assay: PMNs cAMP levels, Gilman's radioimmune assay; format: cell-based, rat; details: 5 × 10^-6 M, N=6
From the text: (§8) 2. PMNs-polymorphonuclear neutrophils-rat peritoneal cavity 0.5% oyster glycogen.
cAMP levels Gilman's radioimmune assay. ^3 H(G)Cyclic-3', 5'-adenosine monophosphate.

[20] = test system: Acid phosphatase; assay: Mouse hepatic lysosomal acid phosphatase activity; format: biochemical; details: 5 × 10^-6 M, N=6; 5 µM
From the text: as §1, §7, §4
Acid phosphatase activity -

[21] = test system: Cf1 male mice; assay: Writhing reflex, 0.6% acetic acid; format: in vivo; details: Table 1; Indomethacin 10 mg/kg
Description: Writhing reflex- Cf1 -male mice- 0.6% acetic acid I.P. drugs administered @20 mg/kg/ I.P. 20 min. later - the # of stretches/10 min.
Hendershot, L.C., et al, J.

[22] = test system: Cf1 male mice; assay: Anti-inflammatory screen, Winter's test, 2% carrageenan hind foot; format: in vivo; details: for Anti-inflammatory: Table 1, drugs 8 or 10 mg/kg I.P. 2X, Indomethacin 10 mg/kg
Description: Anti-inflammatory Screen- Cf1 - male mice-Winter's Test 2% carrageenan S.C. plantar surface of hind foot, drugs administered @8 or 10 mg/kg I.P. 2X
Winter, C.A., et al, Proc. Soc.

[23] = test system: Acid phosphatase; assay: Rat PMNs acid phosphatase activity; format: cell-based; details: 5 × 10^-6 M, N=6; 5 µM
From the text: as §8, §4

[24] = test system: Hepatic oxidative phosphorylation; assay: Hepatic oxidative phosphorylation, Gilson oxygraph; format: biochemical, mouse; details: 10^-6 M; 1 µM
From the text: as §1

[25] = biological target: T6, Cathepsin (Rattus norvegicus, UniProt P24268); assay: Rat PMNs cathepsin activity; format: cell-based; details: pH 5; 5 × 10^-6 M, N=6; read-out: Rat PMNs Cathep.
T6 construct: azocasein assay pH 5.0
From the text: as §8, §3

[26] = in vivo; details: mouse, Table 1, N=6
Description: Amine borane compounds (0 to 100 mg/kg) were administered to CF1 male mice as a single injection with six mice for each dosage. Mice were weighed daily and the number of deaths was recorded each day for a 14 day period. The LD50 value was determined by the procedure of S.C. Gad and C.S. Weil, "Statistics for Toxicologists" in Principles and Methods of Toxicology, A.W. Hayes, Ed., 2nd Edition, P 435-483 Raven Press, New York 1982.

[27] = test system: Aryl sulphatase; assay: Mouse macrophage aryl sulphatase activity; format: cell-based; details: Table VII; mouse macrophage cultured cells, 60 min incubation; read-out: Aryl Sulphatase IC50
[28] = test system: Sprague Dawley Rats; assay: Anti-inflammatory activity in Sprague Dawley rats; format: in vivo; details: Table IV; 8 mg/kg I.P.
[29] = test system: Calcium; assay: Serum and urine calcium levels in vivo; details: Cf1 male mice, 8 mg/kg/day I.P. 14 days, N=6
[30] = test system: Phosphorus; assay: Serum and urine inorganic phosphorus levels in vivo; details: Cf1 male mice, 8 mg/kg/day I.P. 14 days, N=6
[31] = test system: Hydroxyproline; assay: Serum and urine hydroxyproline levels in vivo; details: Cf1 male mice, 8 mg/kg/day I.P. 14 days, N=6

T5 sequence (P18242 65-410): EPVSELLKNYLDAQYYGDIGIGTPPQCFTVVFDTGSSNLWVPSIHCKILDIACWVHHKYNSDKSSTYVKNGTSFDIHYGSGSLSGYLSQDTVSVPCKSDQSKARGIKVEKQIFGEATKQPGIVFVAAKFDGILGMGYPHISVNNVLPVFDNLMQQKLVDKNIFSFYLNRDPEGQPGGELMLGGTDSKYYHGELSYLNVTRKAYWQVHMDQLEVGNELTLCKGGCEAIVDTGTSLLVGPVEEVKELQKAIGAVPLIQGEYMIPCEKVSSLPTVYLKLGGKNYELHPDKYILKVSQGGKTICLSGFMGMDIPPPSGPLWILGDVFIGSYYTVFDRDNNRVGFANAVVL
T6 sequence (P24268 65-407): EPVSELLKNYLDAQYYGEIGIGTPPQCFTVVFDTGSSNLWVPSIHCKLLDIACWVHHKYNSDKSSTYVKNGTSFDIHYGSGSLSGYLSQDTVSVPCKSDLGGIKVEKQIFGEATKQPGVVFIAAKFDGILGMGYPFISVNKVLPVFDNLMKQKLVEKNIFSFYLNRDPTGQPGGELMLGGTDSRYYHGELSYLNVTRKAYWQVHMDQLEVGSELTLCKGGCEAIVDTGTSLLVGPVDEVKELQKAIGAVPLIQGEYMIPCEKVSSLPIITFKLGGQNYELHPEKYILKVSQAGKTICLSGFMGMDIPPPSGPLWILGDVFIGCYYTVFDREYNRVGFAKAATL
T4 sequence (P00772 27-266): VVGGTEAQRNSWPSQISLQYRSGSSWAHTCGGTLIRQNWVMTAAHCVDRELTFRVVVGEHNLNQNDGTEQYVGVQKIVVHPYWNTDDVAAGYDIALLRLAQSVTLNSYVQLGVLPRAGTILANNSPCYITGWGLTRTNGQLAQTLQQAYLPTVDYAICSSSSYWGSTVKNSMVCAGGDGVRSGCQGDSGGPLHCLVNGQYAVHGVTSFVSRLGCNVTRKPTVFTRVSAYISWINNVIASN
T2 sequence (P07339 65-412): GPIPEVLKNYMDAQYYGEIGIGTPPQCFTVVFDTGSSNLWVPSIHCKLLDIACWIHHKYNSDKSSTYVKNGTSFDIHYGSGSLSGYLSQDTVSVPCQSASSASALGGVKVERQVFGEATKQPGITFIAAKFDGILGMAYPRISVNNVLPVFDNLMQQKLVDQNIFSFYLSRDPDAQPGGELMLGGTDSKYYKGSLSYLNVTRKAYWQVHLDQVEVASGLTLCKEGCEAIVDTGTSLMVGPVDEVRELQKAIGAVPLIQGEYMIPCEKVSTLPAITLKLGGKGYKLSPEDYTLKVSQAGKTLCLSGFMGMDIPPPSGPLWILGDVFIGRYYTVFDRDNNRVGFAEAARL

## [BH3-][NH+]1CCOCC1 [Compound 1, Morpholine-borane]
[1]
  IC50: 3.41 µM
[2]
  IC50: 8.99 µM
[3]; read-out: Trypsin BAEE IC50; Table VIII; mouse macrophages, 60 min incubation
  IC50: 2390 nM
[4]
  IC50: 66.9 µM
[5]
  IC50: 1840 nM
[6]; Mus musculus, ip, read-out: Writhing Reflex Cf1 Mice
  response vs control in vivo: 15.2%
[7]
  IC50: 4.4 µM
[8]
  IC50: 72.8 µM
[9]; read-out: Acid Phosphatase IC50; Table VII; mouse macrophage cultured cells, 60 min incubation
  IC50: 3180 nM
[10]
  IC50: 10.3 µM
[11]; read-out: Elastase IC50; Table VIII; mouse macrophages, 60 min incubation
  IC50: 5.94 µM
[12]
  IC50: 2360 nM
[13]
  IC50: 14.9 µM
[14]
  IC50: 7.88 µM
[15]; read-out: Prostaglandin Cyclooxygenase IC50; Table VIII; mouse macrophages, 60 min incubation
  IC50: 1470 nM
[16]; Table V, mouse hepatic, 60 min incubation, read-out: Cathepsin D IC50
  IC50: 880 nM

## C[N+](C)(C)[BH2-]C(=O)O [Compound 3, Trimethylamine-carboxyborane]
[17]
  Anti-arthritic: 53 % Control
[18]
  IC50: 6.71 µM
[19]
  PMNs cAMP: 99 % Control
[20]
  Mouse Liver Acid Phosph.: 82 + 5 % Control
[3]; Table VIII; mouse macrophages, 60 min incubation; read-out: Trypsin BAEE IC50
  IC50: 2780 nM
[21]
  Writhing: 29 % Control
[22]
  Anti-inflammatory: 79 % Control
[22]; Table IV, 8 mg/kg I.P.
  Anti-Inflammatory Activity Mice: 58 % Control
[23]
  Rat PMNs Acid Phoph.: 50 + 3 % Control
[24]
  Hepatic Oxidative Phosphorylation Succinate State 3: 63 + 4 % Control
  Hepatic Oxidative Phosphorylation Succinate State 4: 122 + 14 % Control
  Hepatic Oxidative Phosphorylation alpha-Ketoglutrate State 3: 70 + 20 % Control
  Hepatic Oxidative Phosphorylation alpha-Ketoglutrate State 4: 127 + 22 % Control
[25]
  activity at 5 µM: 14%
[6]; Table IV, 8 mg/kg I.P.
  Writhing Reflex Cf1 Mice: 11.5 % Control
[26]
  LD50 at 336 h: 1800 mg/kg
[27]
  IC50: 7.42 µM
[9]; Table VII; mouse macrophage cultured cells, 60 min incubation; read-out: Acid Phosphatase IC50
  IC50: 1040 nM
[28]
  Anti-Inflammatory Activity Sprague Dawley Rats: 59 % Control
[11]; Table VIII; mouse macrophages, 60 min incubation; read-out: Elastase IC50
  IC50: 2.14 µM
[15]; Table VIII; mouse macrophages, 60 min incubation; read-out: Prostaglandin Cyclooxygenase IC50
  IC50: 2810 nM
[16]; pH 5, 5 × 10^-6 M, N=6, read-out: Mouse Liver Cathep.
  activity at 5 µM: 56%

## CCCCCCCCCCCCCCCCCC[N+](C)(C)[BH2-]C(=O)O [Compound 6, N,N-Dimethyloctadecylamine-carboxyborane]
[6]; Mus musculus, ip, Table IV
  response vs control in vivo at 20 mg/kg: 14.1%
[29]
  Calcium serum: 135.4 % Control
  Calcium urine: 64.4 % Control
[30]
  Phosphorus serum: 86.2 % Control
  Phosphorus urine: 65.4 % Control
[12]
  IC50: 1920 nM
[13]
  IC50: 27.6 µM
[31]
  Hydroxyproline serum: 76.4 % Control
  Hydroxyproline urine: 60.6 % Control

## COc1ccc2c(c1)c(CC(=O)O)c(C)n2C(=O)c1ccc(Cl)cc1 [Indomethacin, reference compound]
[17]
  Anti-arthritic: 27 % Control
[19]
  PMNs cAMP: 80 % Control
[20]
  Mouse Liver Acid Phosph.: 86 + 4 % Control
[21]
  Writhing: 43 % Control
[22]
  Anti-inflammatory: 22 % Control
[23]
  Rat PMNs Acid Phoph.: 100 + 2 % Control
[25]
  activity at 5 µM: 100%
[26]
  LD50 at 336 h: 28 mg/kg
[16]; pH 5, read-out: Mouse Liver Cathep.
  activity at 5 µM: 67%
